Consider 23 molecules from PubChem BioAssay AID330 (DTP/NCI, 2004).

This assay concerns P388 leukemia ip, CD2F1 mice, survival T/C. Briefly: NCI In Vivo Anticancer Drug Screen. Data for tumor model P388 Leukemia (intraperitoneal) in CD2F1 (CDF1) mice. The conditions noted are these: endpoint: median survival time, higher = longer survival. In a few lines:
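Mice carrying the transplanted tumor received test compound or vehicle. Survival was recorded in each group, and the value is the treated-group measurement divided by that of the vehicle-treated control group.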

[1] abbreviates: dose: 25.0 mg/kg/injection, schedule: Q01DX005 (ip), vehicle: saline with Tween-80.
The mark [2] stands for this setting: dose: 50.0 mg/kg/injection, schedule: Q01DX005 (ip), vehicle: saline with Tween-80.
The mark [3] stands for this setting: dose: 100.0 mg/kg/injection, schedule: Q01DX005 (ip), vehicle: saline with Tween-80.
Where [4] appears, read: dose: 200.0 mg/kg/injection, schedule: Q01DX005 (ip), vehicle: saline with Tween-80.
Setting [5] is: dose: 25.0 mg/kg/injection, schedule: Q01DX009 (ip), vehicle: other.
[6] abbreviates: dose: 50.0 mg/kg/injection, schedule: Q04DX003 (ip), vehicle: distilled water + Tween-80.
Where [7] appears, read: dose: 100.0 mg/kg/injection, schedule: Q04DX003 (ip), vehicle: distilled water + Tween-80.
Where [8] appears, read: dose: 200.0 mg/kg/injection, schedule: Q04DX003 (ip), vehicle: distilled water + Tween-80.
Setting [9] is: dose: 400.0 mg/kg/injection, schedule: Q04DX003 (ip), vehicle: distilled water + Tween-80.
Where [10] appears, read: dose: 12.5 mg/kg/injection, schedule: Q01DX009 (ip), vehicle: saline with Tween-80.
[11] abbreviates: dose: 25.0 mg/kg/injection, schedule: Q01DX009 (ip), vehicle: saline with Tween-80.
The mark [12] stands for this setting: dose: 50.0 mg/kg/injection, schedule: Q01DX009 (ip), vehicle: saline with Tween-80.
Setting [13] is: dose: 100.0 mg/kg/injection, schedule: Q01DX009 (ip), vehicle: saline with Tween-80.
[14] abbreviates: dose: 200.0 mg/kg/injection, schedule: Q01DX009 (ip), vehicle: saline with Tween-80.

Each structure is given as a SMILES string. “And” between values parts separate entries of the source, which are not always exact repeats. Identical values can stand only once. Toxic doses and inconclusive results are not listed.

Take `COc1cc(Cc2n[nH]c(=S)[nH]c2=O)cc(OC)c1OC`: the T/C by setting is: (dose: 100.0 mg/kg/injection, schedule: Q04DX002 (ip), vehicle: Klucel (hydroxypropylcellulose) (HPC)) 110 % of control; (dose: 200.0 mg/kg/injection, schedule: Q04DX002 (ip), vehicle: Klucel (hydroxypropylcellulose) (HPC)) 98 % of control; (dose: 400.0 mg/kg/injection, schedule: Q04DX002 (ip), vehicle: Klucel (hydroxypropylcellulose) (HPC)) 100 % of control.
Turning to `CC(C)NC(=O)OCc1c(COC(=O)NC(C)C)c2n(c1-c1ccc(Cl)c(Cl)c1)CCS2=O` (configuration not stated), the T/C was 100 % of control under setting [1], 97 % of control under setting [2] and 87 % of control under setting [3].
In the case of `CC(=O)OCC1OC(NC(=S)NCC(=O)c2ccccc2)C(OC(C)=O)C(OC(C)=O)C1OC(C)=O` (configuration not stated), the T/C under setting [2] was 99 % of control, the T/C under setting [3] is 99 % of control and the T/C under setting [4] is 98 % of control.
As to `ClCCN(CCCl)c1ccc(/C=N/Nc2c3c(nc4ccccc24)CCCC3)cc1`, the T/C (dose: 0.39 mg/kg/injection, schedule: Q01DX009 (ip), vehicle: Klucel (hydroxypropylcellulose) (HPC)) is 95 % of control; the T/C (dose: 0.78 mg/kg/injection, schedule: Q01DX009 (ip), vehicle: Klucel (hydroxypropylcellulose) (HPC)) was 108 % of control; the T/C (dose: 1.56 mg/kg/injection, schedule: Q01DX009 (ip), vehicle: Klucel (hydroxypropylcellulose) (HPC)) is 95 % of control; the T/C (dose: 12.5 mg/kg/injection, schedule: Q01DX009 (ip), vehicle: Klucel (hydroxypropylcellulose) (HPC)) was 90 % of control.
With `CC(C)NC(=O)c1ccc(CN(O)Cc2ccc(C(=O)NC(C)C)cc2)cc1`, the T/C is, setting by setting: under setting [5], 99 % of control; (dose: 50.0 mg/kg/injection, schedule: Q01DX009 (ip), vehicle: other) 99 % of control; (dose: 100.0 mg/kg/injection, schedule: Q01DX009 (ip), vehicle: other) 88 % of control; (dose: 400.0 mg/kg/injection, schedule: Q01DX009 (ip), vehicle: other) 97 % of control.
In the case of `Nc1cc2c(c[n+](CCCCCCCCCC[n+]3cc4c5ccccc5c(N)cc4c4ccccc43)c3ccccc23)c2ccccc12`, the T/C is 118 % of control (dose: 0.78 mg/kg/injection, schedule: Q04DX003 (ip), vehicle: other); 166 % of control (dose: 12.5 mg/kg/injection, schedule: Q04DX003 (ip), vehicle: distilled water + Tween-80); 159 % of control (dose: 25.0 mg/kg/injection, schedule: Q04DX003 (ip), vehicle: distilled water + Tween-80); 160 % of control and 166 % of control (dose: 25.0 mg/kg/injection, schedule: Q04DX003 (ip), vehicle: other); 165 % of control under setting [6]; 157 % of control and 160 % of control (dose: 50.0 mg/kg/injection, schedule: Q04DX003 (ip), vehicle: other). For the same molecule, the T/C reads like this: under setting [7], 161 % of control; under setting [8], 161 % of control; (dose: 200.0 mg/kg/injection, schedule: Q04DX003 (ip), vehicle: other) 169 % of control; under setting [9], 175 % of control.
For the molecule `CN(C)CCN1C(=O)Cc2ccccc2C1=O`, the T/C was 111 % of control (dose: 12.5 mg/kg/injection, schedule: Q01DX001 (ip), vehicle: saline); 109 % of control (dose: 25.0 mg/kg/injection, schedule: Q01DX001 (ip), vehicle: saline); 101 % of control (dose: 50.0 mg/kg/injection, schedule: Q01DX001 (ip), vehicle: saline).
Turning to `Nc1ncnc2[nH]c(=O)[nH]c12`, the T/C is, setting by setting: (dose: 25.0 mg/kg/injection, schedule: Q04DX003 (ip), vehicle: saline) 95 % of control; (dose: 50.0 mg/kg/injection, schedule: Q04DX003 (ip), vehicle: saline) 104 % of control; (dose: 100.0 mg/kg/injection, schedule: Q04DX003 (ip), vehicle: saline) 104 % of control.
Consider `COc1cccc2c1C(=O)c1c(O)c3c(c(O)c1C2=O)CC(O)(C(=O)CO)CC3OC1CC(N)C(O)C(C)O1` (configuration not stated) (tested in a mixture with another compound), for which the T/C is 115 % of control (dose: 6.25 mg/kg/injection, schedule: Q01DX009 (ip), vehicle: other) and 89 % of control under setting [5].
`O=C1C=CC(=O)N1C(=O)NC(NC(=O)N1C(=O)C=CC1=O)c1ccc2c(c1)OCO2`: the T/C is 102 % of control under setting [1], 98 % of control under setting [2], 95 % of control under setting [3] and 102 % of control under setting [4].
On to `O=C1c2ccccc2C(=O)N1CCS(=O)(=O)Cl`, for which the T/C by setting is: under setting [10], 100 % of control; under setting [11], 106 % of control; under setting [12], 114 % of control; under setting [13], 117 % of control.
For `N#Cc1ccc(OCCCCCOc2ccc(C#N)cc2)cc1`, the T/C was 108 % of control under setting [11], 100 % of control under setting [12], 97 % of control under setting [13] and 99 % of control under setting [14].
As to `CCOC(=Nc1ccc2ccccc2c1)SC(c1ccccc1)(c1ccccc1)c1ccccc1`, the T/C by setting is: under setting [2], 107 % of control; under setting [3], 95 % of control; under setting [4], 87 % of control.
As to `C[C@@]12CCC[C@@](C)(C(=O)O)[C@H]1CC[C@]13C[C@@H](CO)[C@@H](CC[C@H]12)C3`, the T/C is, setting by setting: (dose: 50.0 mg/kg/injection, schedule: Q01DX005 (ip), vehicle: Klucel (hydroxypropylcellulose) (HPC)) 99 % of control; (dose: 100.0 mg/kg/injection, schedule: Q01DX005 (ip), vehicle: Klucel (hydroxypropylcellulose) (HPC)) 90 % of control; (dose: 200.0 mg/kg/injection, schedule: Q01DX005 (ip), vehicle: Klucel (hydroxypropylcellulose) (HPC)) 87 % of control.
For the molecule `c1ccc(-c2nnn(-c3ccccc3)n2)cc1`, the T/C runs as follows: under setting [10], 91 % of control; under setting [11], 91 % of control; under setting [12], 91 % of control.
Take `C#CC(=O)O`: the T/C (dose: 6.25 mg/kg/injection, schedule: Q01DX009 (ip), vehicle: saline with Tween-80) is 111 % of control; the T/C under setting [10] is 95 % of control; the T/C under setting [11] is 92 % of control.
As for `COC(=O)Nc1c2ccccc2nc2c1c(C)c(C)c1ccccc12`, the T/C was 88 % of control (dose: 100.0 mg/kg/injection, schedule: Q01DX001 (ip), vehicle: saline with Tween-80); 88 % of control (dose: 200.0 mg/kg/injection, schedule: Q01DX001 (ip), vehicle: saline with Tween-80); 95 % of control (dose: 400.0 mg/kg/injection, schedule: Q01DX001 (ip), vehicle: saline with Tween-80).
Consider `CCC(=O)N/C(N)=N\C(N)=O`, for which the T/C reads like this: (dose: 50.0 mg/kg/injection, schedule: Q01DX005 (ip), vehicle: saline) 95 % of control; (dose: 100.0 mg/kg/injection, schedule: Q01DX005 (ip), vehicle: saline) 98 % of control.
For the molecule `COc1cc2c(cc1OC)C1C(C(=O)O)c3ccc(OC)c(OC)c3C(=O)N1CC2` (configuration not stated), the T/C by setting is: under setting [6], 100 % of control; under setting [7], 101 % of control; under setting [8], 103 % of control; under setting [9], 89 % of control.
`Cc1[nH]c(=O)[nH]c(=O)c1C=O`: the T/C reads like this: under setting [12], 103 % of control; under setting [13], 106 % of control; under setting [14], 99 % of control.
On to `C=C(C)C1Oc2ccc(C(C)=O)cc2C1OC(=O)/C(C)=C\C` (configuration not stated), for which the T/C was 107 % of control (dose: 22.5 mg/kg/injection, schedule: Q01DX009 (ip), vehicle: other); 111 % of control (dose: 45.0 mg/kg/injection, schedule: Q01DX009 (ip), vehicle: other); 107 % of control (dose: 90.0 mg/kg/injection, schedule: Q01DX009 (ip), vehicle: other); 107 % of control (dose: 180.0 mg/kg/injection, schedule: Q01DX009 (ip), vehicle: other).
Consider `O=C(NCCN1CCC(n2c(=O)[nH]c3cc(Cl)ccc32)CC1)c1ccc(F)cc1`, for which the T/C under setting [2] is 95 % of control, the T/C under setting [3] is 88 % of control and the T/C under setting [4] was 90 % of control.
With `O=C(c1ccccc1)c1cccc(C(=O)c2ccccc2)c1`, the T/C is 99 % of control under setting [1], 104 % of control under setting [2], 95 % of control under setting [3] and 105 % of control under setting [4].
